What was measured:
[1] = in vivo
[2] = in vivo; cited from earlier work

CC(C)(C)NC[C@@H](O)c1ccc(O)c(CO)c1 [Albuterol(S)]
Class(High: HIA value ≥0.7; Low: HIA value < 0.7) [1]: High (key: High: HIA value ≥0.7; Low: HIA value < 0.7) | HIA(Human Intestinal Absorption) [2]: 0.83

Cc1nnc2n1-c1ccc(Cl)cc1C(c1ccccc1)=NC2 [Alprazolam]
Class(High: HIA value ≥0.7; Low: HIA value < 0.7) [1]: High (key: High: HIA value ≥0.7; Low: HIA value < 0.7) | HIA(Human Intestinal Absorption) [2]: 0.9

C=CCc1ccccc1OC[C@H](O)CNC(C)C [Alprenolol(R)]
Class(High: HIA value ≥0.7; Low: HIA value < 0.7) [1]: High (key: High: HIA value ≥0.7; Low: HIA value < 0.7) | HIA(Human Intestinal Absorption) [2]: 0.93

C=CCc1ccccc1OC[C@@H](O)CNC(C)C [Alprenolol(S)]
Class(High: HIA value ≥0.7; Low: HIA value < 0.7) [1]: High (key: High: HIA value ≥0.7; Low: HIA value < 0.7) | HIA(Human Intestinal Absorption) [2]: 0.93

N=C(N)NC(=O)c1nc(Cl)c(N)nc1N [Amiloride]
Class(High: HIA value ≥0.7; Low: HIA value < 0.7) [1]: Low (key: High: HIA value ≥0.7; Low: HIA value < 0.7) | HIA(Human Intestinal Absorption) [2]: 0.5

CC[C@]1(c2ccc(N)cc2)CCC(=O)NC1=O [Aminoglutethimide(R)]
Class(High: HIA value ≥0.7; Low: HIA value < 0.7) [1]: High (key: High: HIA value ≥0.7; Low: HIA value < 0.7) | HIA(Human Intestinal Absorption) [2]: 1

CC[C@@]1(c2ccc(N)cc2)CCC(=O)NC1=O [Aminoglutethimide(S)]
Class(High: HIA value ≥0.7; Low: HIA value < 0.7) [1]: High (key: High: HIA value ≥0.7; Low: HIA value < 0.7) | HIA(Human Intestinal Absorption) [2]: 1

CCC1(CCC(C)C)C(=O)NC(=O)NC1=O [Amobarbital]
Class(High: HIA value ≥0.7; Low: HIA value < 0.7) [1]: High (key: High: HIA value ≥0.7; Low: HIA value < 0.7) | HIA(Human Intestinal Absorption) [2]: 0.95

COc1ccccc1OCCNC[C@H](O)c1ccc(C)c(S(N)(=O)=O)c1 [Amosulalol(R)]
Class(High: HIA value ≥0.7; Low: HIA value < 0.7) [1]: High (key: High: HIA value ≥0.7; Low: HIA value < 0.7) | HIA(Human Intestinal Absorption) [2]: 1

COc1ccccc1OCCNC[C@@H](O)c1ccc(C)c(S(N)(=O)=O)c1 [Amosulalol(S)]
Class(High: HIA value ≥0.7; Low: HIA value < 0.7) [1]: High (key: High: HIA value ≥0.7; Low: HIA value < 0.7) | HIA(Human Intestinal Absorption) [2]: 1

N#C[C@H](O[C@@H]1O[C@H](CO[C@@H]2O[C@H](CO)[C@@H](O)[C@H](O)[C@H]2O)[C@@H](O)[C@H](O)[C@H]1O)c1ccccc1 [Amygdalin(S)]
Class(High: HIA value ≥0.7; Low: HIA value < 0.7) [1]: Low (key: High: HIA value ≥0.7; Low: HIA value < 0.7) | HIA(Human Intestinal Absorption) [2]: 0.05

Cc1cc(=O)n(-c2ccccc2)n1C [Antipyrine]
Class(High: HIA value ≥0.7; Low: HIA value < 0.7) [1]: High (key: High: HIA value ≥0.7; Low: HIA value < 0.7) | HIA(Human Intestinal Absorption) [2]: 0.97

NC[C@H](CC(=O)O)c1ccc(Cl)cc1 [Baclofen(R)]
Class(High: HIA value ≥0.7; Low: HIA value < 0.7) [1]: High (key: High: HIA value ≥0.7; Low: HIA value < 0.7) | HIA(Human Intestinal Absorption) [2]: 0.95

NC[C@@H](CC(=O)O)c1ccc(Cl)cc1 [Baclofen(S)]
Class(High: HIA value ≥0.7; Low: HIA value < 0.7) [1]: High (key: High: HIA value ≥0.7; Low: HIA value < 0.7) | HIA(Human Intestinal Absorption) [2]: 0.95

N[C@H](CO)C(=O)NNCc1ccc(O)c(O)c1O [Benserazide(R)]
Class(High: HIA value ≥0.7; Low: HIA value < 0.7) [1]: High (key: High: HIA value ≥0.7; Low: HIA value < 0.7) | HIA(Human Intestinal Absorption) [2]: 0.7

N[C@@H](CO)C(=O)NNCc1ccc(O)c(O)c1O [Benserazide(S)]
Class(High: HIA value ≥0.7; Low: HIA value < 0.7) [1]: High (key: High: HIA value ≥0.7; Low: HIA value < 0.7) | HIA(Human Intestinal Absorption) [2]: 0.7

CCN(CC)CCCOC(=O)C1(c2ccccc2)CC2CCC1C2 (stereo not shown) [Bornaprine]
Class(High: HIA value ≥0.7; Low: HIA value < 0.7) [1]: High (key: High: HIA value ≥0.7; Low: HIA value < 0.7) | HIA(Human Intestinal Absorption) [2]: 1

O=C1CN=C(c2ccccn2)c2cc(Br)ccc2N1 [Bromazepam]
Class(High: HIA value ≥0.7; Low: HIA value < 0.7) [1]: High (key: High: HIA value ≥0.7; Low: HIA value < 0.7) | HIA(Human Intestinal Absorption) [2]: 0.84

C[C@@H](NC(C)(C)C)C(=O)c1cccc(Cl)c1 [Bupropion(R)]
Class(High: HIA value ≥0.7; Low: HIA value < 0.7) [1]: High (key: High: HIA value ≥0.7; Low: HIA value < 0.7) | HIA(Human Intestinal Absorption) [2]: 0.87

C[C@H](NC(C)(C)C)C(=O)c1cccc(Cl)c1 [Bupropion(S)]
Class(High: HIA value ≥0.7; Low: HIA value < 0.7) [1]: High (key: High: HIA value ≥0.7; Low: HIA value < 0.7) | HIA(Human Intestinal Absorption) [2]: 0.87
